What was measured:
Adrenergic β2 = molecular target: T1, Adrenergic β2 (Homo sapiens, UniProt P07550); assay: Adrenergic β2 mediated cAMP production in H292 cells, single concentration 1 μM; format: cell-based; conditions: NCI-H292, 1 μM compound, cAMP as percentage of the maximum response generated by 1E-07M formoterol, read-out: β2 % effect @1 uM
T1 construct: Adherent H292 cells are removed from tissue culture flasks by treatment with Accutase™ cell detachment solution; endogenous in cells; host or cells: H292 cells
T1 sequence (P07550 whole entry): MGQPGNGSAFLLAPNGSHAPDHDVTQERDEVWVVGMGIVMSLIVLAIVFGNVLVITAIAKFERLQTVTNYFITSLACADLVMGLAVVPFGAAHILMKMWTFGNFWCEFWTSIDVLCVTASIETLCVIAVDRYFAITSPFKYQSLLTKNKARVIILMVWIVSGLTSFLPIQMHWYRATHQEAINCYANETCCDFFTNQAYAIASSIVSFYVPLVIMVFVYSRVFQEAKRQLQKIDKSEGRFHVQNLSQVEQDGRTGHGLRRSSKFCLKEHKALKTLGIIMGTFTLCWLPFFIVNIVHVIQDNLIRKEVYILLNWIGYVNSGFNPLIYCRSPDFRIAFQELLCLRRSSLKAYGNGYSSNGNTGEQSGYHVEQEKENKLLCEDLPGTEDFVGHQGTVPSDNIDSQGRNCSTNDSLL
Method: The following experimental procedure was used to measure the beta-2% effect at 1 μM for the compounds of Examples 99-175. Adrenergic p2 Mediated cAMP Production Cell Preparation
H292 cells are grown in 225 cm2 flasks incubator at 37° C., 5% CO2 in RPMI medium containing 10% (v/v) FBS (foetal bovine serum) and 2 mM L-glutamine.
Compounds are prepared by an initial first dilution into DMSO to give 1 mM stock concentration. This is followed by a 1 in 10 dilution of the stock concentration (10 μl stock compound +90 μl DMSO) to give 0.1 mM compound. A compound addition plate is prepared by making a further 1 in 25 dilution in assay buffer (HBSS solution containing 10 mM HEPES pH7.4 and 5 mM glucose) containing 4% dimethylsulfoxide. The final compound concentration in assay is 1 μM.
Adherent H292 cells are removed from tissue culture flasks by treatment with Accutase™ cell detachment solution for 15 minutes. Flasks are incubated for 15 minutes in a humidified incubator at 37° C., 5% CO2. Detached cells are re-suspended in RPMI media (containing 10% (v/v) FBS and 2 mM L-glutamine) at 0.1×10^6 cells per mL. 10000 cells in 100 μL are added to each well of a tissue-culture-treated 96-well plate and the cells incubated overnight in a humidified incubator at 37° C., 5% CO2. The culture media is removed and cells are washed twice with 100 μL assay buffer and replaced with 50 μL assay buffer (HBSS solution containing 10 mM HEPES pH7.4 and 5 mM glucose). Cells are rested at room temperature for 20 minutes after which time 25 μL of rolipram (1.2 mM made up in assay buffer) is added. Cells are incubated with rolipram for 10 minutes after which time 25 μl test compounds are added and the cells are incubated for 60 minutes at room temperature. The final rolipram concentration in the assay is 300 μM and final vehicle concentration is 1% (v/v) dimethylsulphoxide. The reaction is stopped by removing supernatants, washing once with 100 μL assay buffer and replacing with 50 μL lysis buffer. The cell monolayer is frozen at −80° C. for 30 minutes (or overnight).
AlphaScreen™ cAMP Detection
The concentration of cAMP (cyclic adenosine monophosphate) in the cell lysate is determined using AlphaScreen™ methodology. The frozen cell plate is thawed for 20 minutes on a plate shaker then 10 μL of the cell lysate is transferred to a 96-well white plate. 40 μl of mixed AlphaScreen™ detection beads (containing equal volumes of donor beads (pre-incubated with biotinylated cAMP in the dark for 30 minutes) and acceptor beads is added to each well and the plate incubated at room temperature for 3 hours in the dark. The AlphaScreen™ signal is measured using an EnVision spectrophotometer (Perkin-Elmer Inc.) with the recommended manufacturer's settings. Concentration of cAMP produced per well were calculated with reference to the cAMP standard curve determined in the same experiment and expressed as a percentage of the maximum response generated by 1E-07M formoterol.

[1] = molecular target: T2, human muscarinic acetylcholine M3 receptor (Homo sapiens, UniProt P20309); assay: Muscarinic 3 receptor binding assay ([3H]NMS competition, SPA), single concentration 1 μM; conditions: 1 μM compound; % inhibition specific [3H]-NMS binding
T2 construct: expressed in transfected cells; host or cells: CHO-K1 (Chinese Hamster Ovary) cell membranes
T2 sequence (P20309 whole entry): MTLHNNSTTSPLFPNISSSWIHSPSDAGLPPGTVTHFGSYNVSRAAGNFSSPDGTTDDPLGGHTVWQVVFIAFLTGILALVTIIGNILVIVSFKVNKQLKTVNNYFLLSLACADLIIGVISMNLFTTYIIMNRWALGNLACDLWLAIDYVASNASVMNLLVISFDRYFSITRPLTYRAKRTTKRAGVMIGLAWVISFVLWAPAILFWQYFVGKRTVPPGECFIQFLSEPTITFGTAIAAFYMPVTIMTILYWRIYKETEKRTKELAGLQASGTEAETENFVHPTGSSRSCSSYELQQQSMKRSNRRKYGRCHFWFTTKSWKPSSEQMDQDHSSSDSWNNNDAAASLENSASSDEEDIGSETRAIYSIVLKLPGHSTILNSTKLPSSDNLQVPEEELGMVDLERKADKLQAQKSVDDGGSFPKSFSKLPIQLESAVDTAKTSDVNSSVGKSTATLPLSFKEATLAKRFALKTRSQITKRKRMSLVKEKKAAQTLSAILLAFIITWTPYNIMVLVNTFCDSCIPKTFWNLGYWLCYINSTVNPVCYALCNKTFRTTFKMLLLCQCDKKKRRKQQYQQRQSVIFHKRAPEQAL
Method: The following experimental procedure was used to determine the M3% inhibition at 1 μM of the compounds of Examples 99-175
Muscarinic 3 Receptor Binding Assay
The activity (% inhibition specific binding) of compounds on the M3 receptor is determined by competition binding of [^3H]N-methyl scopolamine (NMS) to CHO-K1 (Chinese Hamster Ovary) cell membranes expressing the human muscarinic acetylcholine M3 receptor (M3-ACh) in a scintillation proximity assay (SPA) format. SPA beads are precoated with membranes and then incubated at 2 mg of beads per well with 1 μM compound of the invention, [^3H]NMS at 0.1 nM, quarter Kd (experimentally determined dissociation constant) and assay buffer (20 mM HEPES pH 7.4 containing 5 mM MgCl2 and 0.1% (w/v) bovine serum albumin). The assay is conducted in a final volume of 200 μL, in the presence of 1% (v/v) dimethyl sulphoxide (DMSO). Total binding of [^3H]NMS is determined in the absence of competing compound and non-specific binding of [^3H]NMS is determined in the presence of 1 μM atropine. The plates are incubated for 16 hours at room temperature and then read on Wallac Microbeta™ using a normalised ^3H protocol. The compound activity at 1 μM, defined as % inhibition specific [^3H]-NMS binding, is determined.

| Compound | percent of formoterol maximum response at 1 µM (Adrenergic β2) [%] | inhibition at 1 µM [1] [%] |
| --- | --- | --- |
| O=C1COc2c(CCNCCN(C(=O)CCOCCc3cccc(CN4CCC5(CC4)CN(C(=O)c4cccc(F)c4F)CCO5)c3)C3CCCCC3)ccc(O)c2N1 [Example 110, N-Cyclohexyl-3-(3-((4-(2,3-difluorobenzoyl)-1-oxa-4,9-diazaspiro[5.5]undecan-9-yl)methyl)phenethoxy)-N-(2-(2-(5-hydroxy-3-oxo-3,4-dihydro-2H-benzo[b][1,4]oxazin-8-yl)ethylamino)ethyl)propanamide] | 99 | 100 |
| CCOc1ccccc1C(=O)N1CCOC2(CCN(Cc3cccc(CCOCCC(=O)N(CCNCCc4ccc(O)c5c4OCC(=O)N5)C4CCCCC4)c3)CC2)C1 [Example 111, N-Cyclohexyl-3-(3-((4-(2-ethoxybenzoyl)-1-oxa-4,9-diazaspiro[5.5]undecan-9-yl)methyl)phenethoxy)-N-(2-(2-(5-hydroxy-3-oxo-3,4-dihydro-2H-benzo[b][1,4]oxazin-8-yl)ethylamino)ethyl)propanamide] | 107 | 96 |
| O=C1COc2c(CCNCCN(C(=O)CCOCCc3cccc(CN4CCC5(CC4)CN(C(=O)c4ccc(-n6cccn6)nc4)CCO5)c3)C3CCCCC3)ccc(O)c2N1 [Example 112, 3-(3-((4-(6-(1H-Pyrazol-1-yl)nicotinoyl)-1-oxa-4,9-diazaspiro[5.5]undecan-9-yl)methyl)phenethoxy)-N-cyclohexyl-N-(2-(2-(5-hydroxy-3-oxo-3,4-dihydro-2H-benzo[b][1,4]oxazin-8-yl)ethylamino)ethyl)propanamide] | 105 | 98 |
| Cc1nc2cc(C(=O)N3CCOC4(CCN(Cc5cccc(CCOCCC(=O)N(CCNCCc6ccc(O)c7c6OCC(=O)N7)C6CCCCC6)c5)CC4)C3)ccc2[nH]1 [Example 117, N-Cyclohexyl-N-(2-(2-(5-hydroxy-3-oxo-3,4-dihydro-2H-benzo[b][1,4]oxazin-8-yl)ethylamino)ethyl)-3-(3-((4-(2-methyl-1H-benzo[d]imidazole-5-carbonyl)-1-oxa-4,9-diazaspiro[5.5]undecan-9-yl)methyl)phenethoxy)propanamide] | 90 | 99 |
| O=C1COc2c(CCNCCN(C(=O)CCOCCc3cccc(CN4CCC5(CC4)CN(C(=O)c4n[nH]c6ccccc46)CCO5)c3)C3CCCCC3)ccc(O)c2N1 [Example 120, 3-(3-((4-(1H-Indazole-3-carbonyl)-1-oxa-4,9-diazaspiro[5.5]undecan-9-yl)methyl)phenethoxy)-N-cyclohexyl-N-(2-(2-(5-hydroxy-3-oxo-3,4-dihydro-2H-benzo[b][1,4]oxazin-8-yl)ethylamino)ethyl)propanamide] | 97 | 101 |
| O=C1COc2c(CCNCCN(C(=O)CCOCCc3cccc(CN4CCC5(CC4)CN(C(=O)c4cnccc4C(F)(F)F)CCO5)c3)C3CCCCC3)ccc(O)c2N1 [Example 121, N-Cyclohexyl-N-(2-(2-(5-hydroxy-3-oxo-3,4-dihydro-2H-benzo[b][1,4]oxazin-8-yl)ethylamino)ethyl)-3-(3-((4-(4-(trifluoromethyl)nicotinoyl)-1-oxa-4,9-diazaspiro[5.5]undecan-9-yl)methyl)phenethoxy)propanamide] | 84 | 88 |
| O=C1COc2c(CCNCCN(C(=O)CCOCCc3cccc(CN4CCC5(CC4)CN(C(=O)c4ccc(-n6cccn6)cc4)CCO5)c3)C3CCCCC3)ccc(O)c2N1 [Example 122, 3-(3-((4-(4-(1H-Pyrazol-1-yl)benzoyl)-1-oxa-4,9-diazaspiro[5.5]undecan-9-yl)methyl)phenethoxy)-N-cyclohexyl-N-(2-(2-(5-hydroxy-3-oxo-3,4-dihydro-2H-benzo[b][1,4]oxazin-8-yl)ethylamino)ethyl)propanamide] | 87 | 84 |

More lines, now with the values ahead:

| percent of formoterol maximum response at 1 µM (Adrenergic β2) [%] | inhibition at 1 µM [1] [%] | Compound |
| --- | --- | --- |
| 98 | 99 | O=C1COc2c(CCNCCN(C(=O)CCOCCc3cccc(CN4CCC5(CC4)CN(C(=O)Cc4ccsc4)CCO5)c3)C3CCCCC3)ccc(O)c2N1 [Example 109, N-Cyclohexyl-N-(2-(2-(5-hydroxy-3-oxo-3,4-dihydro-2H-benzo[b][1,4]oxazin-8-yl)ethylamino)ethyl)-3-(3-((4-(2-(thiophen-3-yl)acetyl)-1-oxa-4,9-diazaspiro[5.5]undecan-9-yl)methyl)phenethoxy)propanamide] |
| 112 | 100 | O=C1COc2c(CCNCCN(C(=O)CCOCCc3cccc(CN4CCC5(CC4)CN(C(=O)C4(c6ccccc6)CC4)CCO5)c3)C3CCCCC3)ccc(O)c2N1 [Example 113, N-Cyclohexyl-N-(2-(2-(5-hydroxy-3-oxo-3,4-dihydro-2H-benzo[b][1,4]oxazin-8-yl)ethylamino)ethyl)-3-(3-((4-(1-phenylcyclopropanecarbonyl)-1-oxa-4,9-diazaspiro[5.5]undecan-9-yl)methyl)phenethoxy)propanamide] |
| 106 | 100 | COC1CCCC(C(=O)N2CCOC3(CCN(Cc4cccc(CCOCCC(=O)N(CCNCCc5ccc(O)c6c5OCC(=O)N6)C5CCCCC5)c4)CC3)C2)C1 (stereo not drawn) [Example 114, N-Cyclohexyl-N-(2-(2-(5-hydroxy-3-oxo-3,4-dihydro-2H-benzo[b][1,4]oxazin-8-yl)ethylamino)ethyl)-3-(3-((4-(3-methoxycyclohexanecarbonyl)-1-oxa-4,9-diazaspiro[5.5]undecan-9-yl)methyl)phenethoxy)propanamide] |
| 80 | 94 | O=C1COc2c(CCNCCN(C(=O)CCOCCc3cccc(CN4CCC5(CC4)CN(C(=O)CC46CC7CC(CC(O)(C7)C4)C6)CCO5)c3)C3CCCCC3)ccc(O)c2N1 [Example 116, N-Cyclohexyl-3-[2-[3-[[10-[2-(3-hydroxy-1-adamantyl)acetyl]-7-oxa-3,10-diazaspiro[5.5]undecan-3-yl]methyl]phenyl]ethoxy]-N-[2-[2-(5-hydroxy-3-oxo-4H-1,4-benzoxazin-8-yl)ethylamino]ethyl]propanamide] |
| 97 | 96 | Cc1ncc(Br)cc1C(=O)N1CCOC2(CCN(Cc3cccc(CCOCCC(=O)N(CCNCCc4ccc(O)c5c4OCC(=O)N5)C4CCCCC4)c3)CC2)C1 [Example 118, 3-(3-((4-(5-Bromo-2-methylnicotinoyl)-1-oxa-4,9-diazaspiro[5.5]undecan-9-yl)methyl)phenethoxy)-N-cyclohexyl-N-(2-(2-(5-hydroxy-3-oxo-3,4-dihydro-2H-benzo[b][1,4]oxazin-8-yl)ethylamino)ethyl)propanamide] |
